In brackets after ≈: the same amount, converted by molar mass. Each block holds one compound with its values, some of them ahead of it.
Tests used:
Test in all cases: ≥ marks a high value that may be exact or a test limit, other limits are often not marked, values filed in µg/mL are converted to µM
[1] = system: Pseudomonas aeruginosa Ps4
[2] = system: Pseudomonas aeruginosa DSM 1117
[3] = system: Staphylococcus aureus DSM 1104
[4] = system: Staphylococcus epidermidis DSM 1798
[5] = system: Escherichia coli DSM 1103
[6] = system: Escherichia coli DC2
[7] = system: Escherichia coli UB1005
[8] = system: Staphylococcus epidermidis C621
[9] = system: Corynebacterium xerosis C875
[10] = system: Bacillus subtilis ATCC 6633
[11] = system: Enterococcus faecalis ATCC 29212
[12] = system: Escherichia coli ATCC 25922
[13] = system: Pseudomonas aeruginosa ATCC 27853
[14] = system: Staphylococcus aureus ATCC 25923
[15] = system: Staphylococcus aureus ATCC 12600
[16] = system: Escherichia coli ATCC 11775
[17] = system: Escherichia coli NCTC 10418

Structure (SMILES): CC[C@H](C)[C@H](NC(=O)[C@H](CC(N)=O)NC(=O)[C@H](CCCN=C(N)N)NC(=O)[C@H](C)NC(=O)[C@H](Cc1c[nH]c2ccccc12)NC(=O)[C@@H](N)Cc1ccccc1)C(=O)N[C@@H](CCCN=C(N)N)C(=O)N[C@@H](CCCCN)C(=O)N[C@H](C(=O)N[C@@H](CCCN=C(N)N)C(N)=O)C(C)C [FWARNIRKVR]
MIC [1]: ≥ 186 µM

Structure (SMILES): CC[C@H](C)[C@H](NC(=O)[C@H](CC(N)=O)NC(=O)[C@H](CCCN=C(N)N)NC(=O)[C@H](CC(C)C)NC(=O)[C@H](Cc1c[nH]c2ccccc12)NC(=O)[C@@H](N)Cc1ccccc1)C(=O)N[C@@H](CCCN=C(N)N)C(=O)N[C@@H](CCCCN)C(=O)N[C@H](C(=O)N[C@@H](CCCN=C(N)N)C(N)=O)C(C)C [FWLRNIRKVR]
MIC [1]: ≥ 180 µM

Structure (SMILES): CC[C@H](C)[C@H](NC(=O)[C@H](CCCN=C(N)N)NC(=O)[C@@H](NC(=O)[C@H](CCCN=C(N)N)NC(=O)[C@H](CCC(N)=O)NC(=O)[C@H](Cc1c[nH]c2ccccc12)NC(=O)[C@@H](N)Cc1ccccc1)[C@@H](C)CC)C(=O)N[C@@H](CCCN=C(N)N)C(=O)N[C@@H](CCCN=C(N)N)C(N)=O [FWQRIRIRR]
MIC [1]: ≥ 188 µM

Structure (SMILES): CC[C@H](C)[C@H](NC(=O)[C@H](CC(N)=O)NC(=O)[C@H](CCCN=C(N)N)NC(=O)[C@H](CCC(N)=O)NC(=O)[C@H](Cc1c[nH]c2ccccc12)NC(=O)[C@@H](N)Cc1ccccc1)C(=O)N[C@@H](CCCN=C(N)N)C(=O)N[C@@H](CCCCN)C(=O)N[C@H](C(=O)N[C@@H](CO)C(N)=O)C(C)C [FWQRNIRKVS]
MIC [1]: ≥ 187 µM

Structure (SMILES): CC[C@H](C)[C@H](NC(=O)[C@H](CCCN=C(N)N)NC(=O)[C@H](Cc1c[nH]c2ccccc12)NC(=O)[C@H](CC(N)=O)NC(=O)[C@H](CCCN=C(N)N)NC(=O)[C@H](CCC(N)=O)NC(=O)[C@H](Cc1c[nH]c2ccccc12)NC(=O)[C@@H](N)Cc1ccccc1)C(=O)N[C@@H](CCCN=C(N)N)C(=O)N[C@@H](CCCN=C(N)N)C(N)=O [FWQRNWRIRR]
MIC [1]: ≥ 165 µM

Structure (SMILES): CC[C@H](C)[C@H](NC(=O)[C@H](C)NC(=O)CNC(=O)[C@H](C)NC(=O)[C@H](CCCN=C(N)N)NC(=O)[C@H](CO)NC(=O)[C@H](C)NC(=O)[C@H](CCSC)NC(=O)CN)C(=O)N[C@@H](C)C(=O)NCC(=O)N[C@@H](CCCN=C(N)N)C(=O)N[C@H](C(=O)N[C@@H](C)C(=O)N[C@@H](CCCN=C(N)N)C(=O)N[C@H](C(=O)N[C@@H](C)C(=O)N[C@@H](CC(C)C)C(=O)N[C@@H](CCCN=C(N)N)C(=O)N[C@@H](C)C(=O)N[C@@H](CC(C)C)C(N)=O)C(C)C)[C@@H](C)CC [GMASRAGAIAGRIARVALRAL]
MIC [2]: ≥ 113 µM
MIC [3]: 4 µM (≈ 8.32 µg/mL)
MIC [4]: 2 µM (≈ 4.16 µg/mL)
MIC [5]: 7 µM (≈ 14.6 µg/mL)

Structure (SMILES): C[C@H](NC(=O)[C@H](C)NC(=O)[C@H](C)NC(=O)[C@H](CS)NC(=O)[C@H](C)NC(=O)[C@H](C)NC(=O)[C@H](C)NC(=O)[C@H](CCCCN)NC(=O)[C@@H](N)CCCCN)C(=O)N[C@@H](C)C(=O)N[C@@H](C)C(=O)N[C@@H](CS)C(=O)N[C@@H](C)C(=O)N[C@@H](C)C(=O)N[C@@H](Cc1c[nH]c2ccccc12)C(=O)N[C@@H](C)C(=O)N[C@@H](C)C(=O)N[C@@H](CS)C(=O)N[C@@H](C)C(=O)N[C@@H](C)C(=O)N[C@@H](C)C(=O)N[C@@H](CCCCN)C(=O)N[C@@H](CCCCN)C(=O)N[C@@H](CCCCN)C(=O)N[C@@H](CCCCN)C(N)=O [KKAAACAAAAACAAWAACAAAKKKK]
MIC [6]: 8 µM (≈ 18.8 µg/mL)
MIC [7]: 16 µM (≈ 37.6 µg/mL)
MIC [8]: ≥ 32 µM
MIC [9]: 1 µM (≈ 2.35 µg/mL)

Structure (SMILES): C[C@H](NC(=O)[C@H](C)NC(=O)[C@H](C)NC(=O)[C@H](Cc1ccccc1)NC(=O)[C@H](C)NC(=O)[C@H](C)NC(=O)[C@H](C)NC(=O)[C@H](CCCCN)NC(=O)[C@@H](N)CCCCN)C(=O)N[C@@H](C)C(=O)N[C@@H](C)C(=O)N[C@@H](Cc1ccccc1)C(=O)N[C@@H](C)C(=O)N[C@@H](C)C(=O)N[C@@H](Cc1c[nH]c2ccccc12)C(=O)N[C@@H](C)C(=O)N[C@@H](C)C(=O)N[C@@H](Cc1ccccc1)C(=O)N[C@@H](C)C(=O)N[C@@H](C)C(=O)N[C@@H](C)C(=O)N[C@@H](CCCCN)C(=O)N[C@@H](CCCCN)C(=O)N[C@@H](CCCCN)C(=O)N[C@@H](CCCCN)C(N)=O [KKAAAFAAAAAFAAWAAFAAAKKKK]
MIC [10]: 1 µM (≈ 2.48 µg/mL)
MIC [11]: > 32 µM
MIC [12]: > 32 µM
MIC [6]: 4 µM (≈ 9.92 µg/mL)
MIC [13]: 8 µM (≈ 19.8 µg/mL)
MIC [7]: 16 µM (≈ 39.7 µg/mL)
MIC [8]: 2 µM (≈ 4.96 µg/mL)
MIC [14]: > 32 µM
MIC [9]: 0.25 µM (≈ 0.62 µg/mL)

The remaining lines, values ahead:

MIC [10]: 2 µM (≈ 4.39 µg/mL)
MIC [11]: > 32 µM
MIC [12]: 32 µM (≈ 70.3 µg/mL)
MIC [6]: 4 µM (≈ 8.78 µg/mL)
MIC [13]: > 32 µM
MIC [7]: 8 µM (≈ 17.6 µg/mL)
MIC [8]: 8 µM (≈ 17.6 µg/mL)
MIC [14]: > 32 µM
MIC [9]: 0.5 µM (≈ 1.1 µg/mL)
Structure (SMILES): C[C@H](NC(=O)[C@H](C)NC(=O)[C@H](C)NC(=O)[C@H](Cc1ccccc1)NC(=O)[C@H](C)NC(=O)[C@H](CCCCN)NC(=O)[C@@H](N)CCCCN)C(=O)N[C@@H](C)C(=O)N[C@@H](C)C(=O)N[C@@H](Cc1ccccc1)C(=O)N[C@@H](C)C(=O)N[C@@H](C)C(=O)N[C@@H](Cc1c[nH]c2ccccc12)C(=O)N[C@@H](C)C(=O)N[C@@H](C)C(=O)N[C@@H](Cc1ccccc1)C(=O)N[C@@H](C)C(=O)N[C@@H](CCCCN)C(=O)N[C@@H](CCCCN)C(=O)N[C@@H](CCCCN)C(=O)N[C@@H](CCCCN)C(N)=O [KKAFAAAAAFAAWAAFAKKKK]

MIC [12]: 16 µM (≈ 39.7 µg/mL)
MIC [6]: 8 µM (≈ 19.8 µg/mL)
MIC [13]: 32 µM (≈ 79.4 µg/mL)
MIC [7]: 16 µM (≈ 39.7 µg/mL)
MIC [8]: 4 µM (≈ 9.92 µg/mL)
MIC [9]: 1 µM (≈ 2.48 µg/mL)
Structure (SMILES): C[C@H](NC(=O)[C@H](C)NC(=O)[C@H](C)NC(=O)[C@H](Cc1ccccc1)NC(=O)[C@H](C)NC(=O)[C@H](C)NC(=O)[C@H](Cc1c[nH]c2ccccc12)NC(=O)[C@H](C)NC(=O)[C@H](C)NC(=O)[C@H](Cc1ccccc1)NC(=O)[C@H](C)NC(=O)[C@H](C)NC(=O)[C@H](C)NC(=O)[C@H](C)NC(=O)[C@H](C)NC(=O)[C@H](Cc1ccccc1)NC(=O)[C@H](C)NC(=O)[C@H](C)NC(=O)[C@H](C)NC(=O)[C@H](CCCCN)NC(=O)[C@H](CCCCN)NC(=O)[C@H](CCCCN)NC(=O)[C@H](CCCCN)NC(=O)[C@H](CCCCN)NC(=O)[C@@H](N)CCCCN)C(N)=O [KKKKKKAAAFAAAAAFAAWAAFAAA]

MIC [15]: 12.5 µM (≈ 27.5 µg/mL)
MIC [16]: 25 µM (≈ 55.1 µg/mL)
Structure (SMILES): CC[C@H](C)[C@@H]1NC(=O)[C@H](CC(C)C)NC(=O)[C@@H](NC(=O)[C@H](Cc2ccccc2)NC(=O)[C@H](CC(C)C)NC(=O)[C@H](CCCCN)NC(=O)[C@@H]2CCCN2C(=O)[C@H](CC(C)C)NC(=O)[C@H](C)NC(=O)[C@H](C)NC(=O)[C@H](CC(C)C)NC(=O)[C@H](C)NC(=O)[C@H](CC(C)C)NC(=O)[C@H](CO)NC(=O)[C@H](CC(C)C)NC(=O)[C@@H](N)CC(C)C)CSSC[C@@H](C(=O)O)NC(=O)[C@H](CCCCN)NC(=O)[C@H](CCCCN)NC(=O)[C@H](Cc2ccccc2)NC1=O [LLSLALAALPKLFCLIFKKC]

MIC [2]: 26 µM (≈ 58 µg/mL)
MIC [3]: 3 µM (≈ 6.69 µg/mL)
MIC [4]: 2 µM (≈ 4.46 µg/mL)
MIC [5]: 6 µM (≈ 13.4 µg/mL)
Structure (SMILES): CC[C@H](C)[C@H](NC(=O)[C@H](CCCN=C(N)N)NC(=O)CNC(=O)[C@H](C)NC(=O)[C@@H](NC(=O)[C@H](CCCN=C(N)N)NC(=O)[C@H](C)NC(=O)[C@@H](NC(=O)[C@H](CCCN=C(N)N)NC(=O)CNC(=O)[C@H](C)NC(=O)[C@@H](NC(=O)[C@H](CCCN=C(N)N)NC(=O)[C@H](C)NC(=O)[C@@H](NC(=O)[C@H](CCCN=C(N)N)NC(=O)CNC(=O)[C@H](C)NC(=O)[C@@H](NC(=O)[C@@H](N)CCCN=C(N)N)[C@@H](C)CC)[C@@H](C)CC)[C@@H](C)CC)[C@@H](C)CC)[C@@H](C)CC)C(=O)N[C@@H](C)C(N)=O [RIAGRIARIAGRIARIAGRIA]

MIC [17]: ≥ 70 µM
Structure (SMILES): CSCC[C@H](NC(=O)[C@H](Cc1c[nH]c2ccccc12)NC(=O)[C@@H]1CCCN1C(=O)[C@@H]1CCCN1C(=O)[C@H](Cc1ccccc1)NC(=O)[C@@H](NC(=O)[C@H](Cc1cnc[nH]1)NC(=O)[C@H](Cc1ccccc1)NC(=O)[C@@H](N)CO)C(C)C)C(=O)N[C@H]1CSSC[C@@H](C(=O)O)NC(=O)[C@H](CCCCN)NC(=O)[C@H](CCCCN)NC(=O)[C@H](CC(C)C)NC(=O)[C@H](CO)NC(=O)[C@H](CCCCN)NC1=O [SFHVFPPWMCKSLKKC]

MIC [2]: ≥ 122 µM
MIC [3]: ≥ 122 µM
MIC [4]: ≥ 122 µM
MIC [5]: ≥ 122 µM
Structure (SMILES): CC(C)C[C@H](NC(=O)[C@H](CCCN=C(N)N)NC(=O)[C@@H](NC(=O)[C@@H]1CCCN1C(=O)[C@@H]1CCCN1C(=O)[C@@H]1CCCN1C(=O)[C@H](CC(C)C)NC(=O)[C@H](CCCN=C(N)N)NC(=O)[C@@H](NC(=O)[C@@H]1CCCN1C(=O)[C@@H]1CCCN1C(=O)[C@@H]1CCCN1C(=O)[C@H](CC(C)C)NC(=O)[C@H](CCCN=C(N)N)NC(=O)[C@@H](N)C(C)C)C(C)C)C(C)C)C(=O)N1CCC[C@H]1C(=O)N1CCC[C@H]1C(=O)N1CCC[C@H]1C(=O)O [VRLPPPVRLPPPVRLPPP]

Source: DBAASP
